Experiments:
Hepatitis B virus [1] = assay: Antiviral activity against HBV infected in human HepG2(2.2.15) cells assessed as reduction in HBsAg antigen secretion after 72 hrs by ELISA; assay type: functional, organism-based; conditions: HepG2 2.2.15, 72 h
Hepatitis B virus [2] = assay: Antiviral activity against HBV infected in human HepG2(2.2.15) cells assessed as reduction in HBeAg antigen secretion after 72 hrs by ELISA; assay type: functional, organism-based; conditions: HepG2 2.2.15, 72 h
[3] = Cytotoxicity in human HepG2(2.2.15) cells after 72 hrs by MTT assay; assay type: cell-based
[4] = Selectivity index, ratio of CC50 for human HepG2(2.2.15) cells to IC50 for HBsAg antigen secretion in HBV infected in human HepG2(2.2.15) cells; assay type: functional
[5] = Selectivity index, ratio of CC50 for human HepG2(2.2.15) cells to IC50 for HBeAg antigen secretion in HBV infected in human HepG2(2.2.15) cells; assay type: functional

Compound	IC50 (Hepatitis B virus [1]) [µM]	IC50 (Hepatitis B virus [2]) [µM]	CC50 at 72 h [3] [µM]	Ratio CC50/IC50 [4]	Ratio CC50/IC50 [5]
CC(=O)C[C@@H]1O[C@@H](C)C(=O)C2=C1C(=O)OCC2 [Swerilactone L]	1470	880	1430	<1	1.62
CC(=O)c1cc2c(c([C@H](C)O)c1)CCOC2=O [Swerilactone M]	1200	> 2690	1840	1.53	<1
Nc1ccn([C@@H]2CS[C@H](CO)O2)c(=O)n1 [LAMIVUDINE]	–	–	33200	–	1.1

Continued, in another order:

IC50 (Hepatitis B virus [1]) [µM]	IC50 (Hepatitis B virus [2]) [µM]	Compound	CC50 at 72 h [3] [µM]	Ratio CC50/IC50 [4]	Ratio CC50/IC50 [5]
> 1440	> 1440	CC(=O)/C=C/c1cccc2c1CCOC2=O [Swerilactone O]	> 1440	–	–
> 510	> 510	CC(=O)C[C@H](O)c1cccc2c1CCOC2=O [Swerilactone N]	> 510	–	–
